Reference: the Kinase Knowledgebase extract (Sharma et al. 2016)

Each compound was assayed against PIK3CA (human) (UniProt P42336) (assay: Assessment of PIK3CA Kinase Activity).
PIK3CA (human), sequence (P42336 whole entry, looked up): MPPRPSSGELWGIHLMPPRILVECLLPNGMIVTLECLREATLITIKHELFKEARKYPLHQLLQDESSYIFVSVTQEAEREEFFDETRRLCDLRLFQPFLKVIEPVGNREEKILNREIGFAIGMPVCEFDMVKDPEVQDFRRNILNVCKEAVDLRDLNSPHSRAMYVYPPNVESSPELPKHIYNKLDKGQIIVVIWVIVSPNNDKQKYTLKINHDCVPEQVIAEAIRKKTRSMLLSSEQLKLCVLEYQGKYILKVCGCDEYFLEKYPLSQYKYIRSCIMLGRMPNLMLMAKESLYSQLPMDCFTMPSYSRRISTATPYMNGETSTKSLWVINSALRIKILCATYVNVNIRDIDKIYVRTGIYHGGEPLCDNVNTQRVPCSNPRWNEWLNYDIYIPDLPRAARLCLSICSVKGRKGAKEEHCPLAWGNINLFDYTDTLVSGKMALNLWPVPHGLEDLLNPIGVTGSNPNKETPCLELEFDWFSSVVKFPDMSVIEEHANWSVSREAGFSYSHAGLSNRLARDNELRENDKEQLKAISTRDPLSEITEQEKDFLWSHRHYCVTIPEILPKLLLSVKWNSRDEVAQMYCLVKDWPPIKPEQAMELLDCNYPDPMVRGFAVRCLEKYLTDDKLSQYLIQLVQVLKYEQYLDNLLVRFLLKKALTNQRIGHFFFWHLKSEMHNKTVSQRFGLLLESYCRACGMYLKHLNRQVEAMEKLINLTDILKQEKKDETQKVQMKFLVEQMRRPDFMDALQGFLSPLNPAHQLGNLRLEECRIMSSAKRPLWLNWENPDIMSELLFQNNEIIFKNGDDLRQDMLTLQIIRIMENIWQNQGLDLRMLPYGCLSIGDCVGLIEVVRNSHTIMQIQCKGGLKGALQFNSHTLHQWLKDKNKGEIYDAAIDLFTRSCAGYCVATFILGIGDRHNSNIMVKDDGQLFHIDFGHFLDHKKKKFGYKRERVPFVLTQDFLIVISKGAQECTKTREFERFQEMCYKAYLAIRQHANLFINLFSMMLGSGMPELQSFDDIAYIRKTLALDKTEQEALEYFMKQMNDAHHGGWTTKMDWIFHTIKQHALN

Structure (SMILES) | Ki
COc1ccc(Nc2ncccc2-c2ncnc3[nH]cnc23)cn1 | 7280 nM
Cc1nc(N)nc(-c2cccnc2Nc2cccc3[nH]ncc23)n1 | 33 nM
COc1ccc(Nc2ncc([C@@H](O)C(C)(C)C)cc2-c2nc(C)nc3[nH]cnc23)cn1 | 12 nM
COc1ncc(Nc2ncc([C@H](C)CO)cc2-c2nc(C)nc(N)n2)cc1F | 7 nM
COc1ccc(Nc2ncc(CN3CC[C@@H](CO)C3)cc2-c2nc(C)nc(N)n2)cn1 | 278 nM
COc1ccc(Nc2ncc(Cc3ccccc3)cc2-c2nc(C)nc(N)n2)cn1 | 65 nM
COc1cnc(Nc2cnc(Cl)c(NS(=O)(=O)N(C)C)c2)c(-c2nc(C)nc(N)n2)c1 | 14 nM
COc1ccc(Nc2ncc(CN3CCN(S(=O)(=O)N(C)C)CC3)cc2-c2nc(C)nc(N)n2)cn1 | 17 nM
COc1ccc(Nc2ncc(CN3CCOCC3)cc2-c2nc(C)nc(N)n2)cn1 | 104 nM
COc1ccc(Nc2ncc(Cl)cc2-c2nc(C)nc(N)n2)cn1 | 70 nM
COc1cnc(Nc2ccc(OC)nc2)c(-c2nc(C)nc(N)n2)c1 | 55 nM
COc1cccc(Nc2cnc(Nc3ccc(OC)nc3)c(-c3nc(C)nc4[nH]cnc34)c2)c1 | 35 nM
COc1ccc(Nc2ncc([C@H](O)C(C)(C)C)cc2-c2nc(C)nc3[nH]cnc23)cn1 | 31 nM
COc1ccc(Nc2ncc(CN3CCNCC3)cc2-c2nc(C)nc(N)n2)cn1 | 61 nM
COc1ncc(Nc2ncc([C@@H](C)CO)cc2-c2nc(C)nc(N)n2)cc1F | 9 nM
COc1ncc(Nc2ncc(CN3CCN(C(=O)N(C)C4CC4)CC3)cc2-c2nc(C)nc(N)n2)cc1F | 45 nM
COc1ccc(Nc2ncc(C)cc2-c2nc(C)nc(N)n2)cn1 | 242 nM
COc1ccc(Nc2ncc(C3=CCOCC3)cc2-c2nc(C)nc(N)n2)cn1 | 5 nM

Continued, values first:

Ki | Structure (SMILES)
107 nM | COc1ccc(Nc2ncccc2-c2nc(C)nc(N)n2)cn1
9 nM | COc1ccc(Nc2ncc(CC3CCN(S(C)(=O)=O)CC3)cc2-c2nc(C)nc(N)n2)cn1
33 nM | COc1ccc(Nc2ncc(C(O)C(F)(F)F)cc2-c2nc(C)nc(N)n2)cn1 (stereo unspecified)
160 nM | COc1ccc(Nc2ncc(CN3CCC3)cc2-c2nc(C)nc(N)n2)cn1
266 nM | COc1ccc(Nc2ncc(CN3CCCC3)cc2-c2nc(C)nc(N)n2)cn1
2 nM | Cc1nc(N)nc(-c2cc(Cl)cnc2Nc2cnc(Cl)c(NS(=O)(=O)N(C)C)c2)n1
63 nM | COc1ccc(Nc2ncc(CO)cc2-c2nc(C)nc(N)n2)cn1
24 nM | COc1ncc(Nc2ncc(CN3CCN(C(=O)N(C)CC(F)(F)F)CC3)cc2-c2nc(C)nc(N)n2)cc1F
199 nM | COc1ccc(Nc2ncc(CN3CCC(O)CC3)cc2-c2nc(C)nc(N)n2)cn1
247 nM | COc1ccc(Nc2ncc(Br)cc2-c2nc(C)nc(N)n2)cn1
16 nM | COc1ccc(Nc2ncc(CN3CCC(S(C)(=O)=O)C3)cc2-c2nc(C)nc(N)n2)cn1 (stereo unspecified)
5 nM | COCCOc1cnc(Nc2cnc(Cl)c(NS(C)(=O)=O)c2)c(-c2nc(C)nc(N)n2)c1
258 nM | COc1ccc(Nc2ncc(CN3CCN(C)CC3)cc2-c2nc(C)nc(N)n2)cn1
283 nM | COCCNCc1cnc(Nc2ccc(OC)nc2)c(-c2nc(C)nc(N)n2)c1
8 nM | COc1ccc(Nc2ncc(-c3cnn(C)c3)cc2-c2nc(C)nc(N)n2)cn1
7 nM | Cc1nc(N)nc(-c2cc([C@@H](C)N3CCOCC3)cnc2Nc2cnc(Cl)c(NS(C)(=O)=O)c2)n1
22 nM | COc1ccc(Nc2ncc(CN3CCC(S(C)(=O)=O)CC3)cc2-c2nc(C)nc(N)n2)cn1
153 nM | COc1ccc(Nc2ncc(CN3CCCCC3)cc2-c2nc(C)nc(N)n2)cn1
